In patent publication US8017791B2, “Tri-substituted 2-benzhydryl-5-benzylamino-tetrahydro-pyran-4-ol and 6-benzhydryl-4-benzylamino-tetrahydro-pyran-3-ol analogues, and novel, 3,6-disubstituted pyran derivatives” (Wayne State University, priority 2003, dated 2011):
“Also recorded” adds a separate entry of the source. Read-outs that look alike come from different tables or passages of the source. Blank lines part the entries; values can stand above or below the compound they belong to.

Legend:
[1] = biological target: T1, DAT (Rattus norvegicus, UniProt P23977); details: Table 2; values marked b: See reference # 22; read-out: DAT binding, IC50, [3H]Win 35,428; cited from earlier work
T1 construct: rat striatum was the source for DAT, and cerebral cortex for SERT and NET; from tissue; P2 synaptosomal fraction for uptake
T1 sequence (P23977 whole entry): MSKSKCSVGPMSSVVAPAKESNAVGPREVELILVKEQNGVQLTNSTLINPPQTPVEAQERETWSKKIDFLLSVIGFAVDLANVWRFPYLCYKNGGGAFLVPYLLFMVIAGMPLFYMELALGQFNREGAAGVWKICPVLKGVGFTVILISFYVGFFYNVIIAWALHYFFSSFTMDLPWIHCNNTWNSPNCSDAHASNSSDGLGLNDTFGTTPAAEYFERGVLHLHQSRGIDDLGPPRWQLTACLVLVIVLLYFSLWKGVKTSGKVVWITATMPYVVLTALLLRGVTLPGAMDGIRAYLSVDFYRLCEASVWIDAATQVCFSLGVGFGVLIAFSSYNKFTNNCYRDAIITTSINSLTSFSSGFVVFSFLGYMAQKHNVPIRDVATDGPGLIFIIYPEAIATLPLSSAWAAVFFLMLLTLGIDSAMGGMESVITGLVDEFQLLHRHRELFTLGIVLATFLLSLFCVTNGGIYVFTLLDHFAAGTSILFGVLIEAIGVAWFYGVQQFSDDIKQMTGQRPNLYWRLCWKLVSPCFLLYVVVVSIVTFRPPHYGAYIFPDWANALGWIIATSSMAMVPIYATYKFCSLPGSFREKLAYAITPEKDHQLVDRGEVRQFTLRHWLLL

[2] = biological target: T2, SERT (Rattus norvegicus, UniProt P31652); experiment: Inhibition of [3H]citalopram binding to SERT; details: for SERT binding/DAT binding: Table 3, selectivity ratio of IC50 values
T2 construct: rat striatum was the source for DAT, and cerebral cortex for SERT and NET; from tissue; host or cells: rat cerebral cortex
T2 sequence (P31652 whole entry): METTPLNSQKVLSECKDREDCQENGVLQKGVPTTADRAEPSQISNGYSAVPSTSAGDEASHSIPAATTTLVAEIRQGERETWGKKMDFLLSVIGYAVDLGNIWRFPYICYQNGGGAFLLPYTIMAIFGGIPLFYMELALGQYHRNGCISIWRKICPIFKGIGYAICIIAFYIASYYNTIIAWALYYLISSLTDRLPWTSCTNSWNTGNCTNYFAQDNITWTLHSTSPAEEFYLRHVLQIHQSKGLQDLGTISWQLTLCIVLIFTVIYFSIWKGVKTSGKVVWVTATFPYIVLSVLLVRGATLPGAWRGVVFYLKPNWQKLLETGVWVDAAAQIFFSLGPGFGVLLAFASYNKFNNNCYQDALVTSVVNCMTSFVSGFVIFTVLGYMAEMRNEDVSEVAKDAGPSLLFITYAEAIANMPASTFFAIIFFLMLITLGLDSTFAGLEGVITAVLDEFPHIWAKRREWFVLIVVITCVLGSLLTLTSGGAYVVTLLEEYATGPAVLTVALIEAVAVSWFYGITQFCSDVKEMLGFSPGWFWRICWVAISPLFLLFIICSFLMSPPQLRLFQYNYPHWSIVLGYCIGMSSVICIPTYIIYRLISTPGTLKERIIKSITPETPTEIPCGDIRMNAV
Procedure: (§1) Biology. […] Briefly, rat striatum was the source for DAT, and cerebral cortex for SERT and NET. […] Test compounds were dissolved in dimethyl sulfoxide (DMSO) and diluted out in 10% (v/v) DMSO. […] At least five triplicate concentrations of each test compound were studied, spaced evenly around the IC50 value. For DAT uptake assays, uptake of 50 nM [^3H]DA into rat striatal synaptosomes was measured exactly as described by us previously. Briefly, rat striatal P2 membrane fractions were incubated with test compounds for 8 min followed by the additional presence of [^3H]DA for 4 min at 25?. […] Construction of inhibition curves and dissolvement of test compounds were as described above.

[3] = biological target: NET (Rattus norvegicus, UniProt Q9WTR4); experiment: Inhibition of [3H]nisoxetine binding to NET
Procedure: as §1

[4] = system: NET; experiment: Inhibition of [3H]nisoxetine binding to NET; set-up: species or system rat; details: Table 3; selectivity ratio of IC50 values
Procedure: as §1

[5] = biological target: T1, DAT; experiment: Inhibition of [3H]WIN 35,428 binding to DAT
Procedure: as §1

[6] = biological target: T1, DAT; experiment: Inhibition of [3H]DA uptake by DAT into rat striatal synaptosomes; format: biochemical; details: for [3H]DA uptake/DAT binding: Table 3, ratio of IC50 values
Procedure: as §1

[7] = biological target: T2, SERT; experiment: SERT uptake inhibition, [3H]5-HT; format: biochemical; details: for blockade of both SERT and NET (SNRI profile), in words: in vitro data
[8] = biological target: T3, NET (Rattus norvegicus); experiment: NET uptake inhibition, [3H]NE; format: biochemical; details: Table 4; rat brain
T3 construct: from tissue
T3 sequence (Q63380 1-617): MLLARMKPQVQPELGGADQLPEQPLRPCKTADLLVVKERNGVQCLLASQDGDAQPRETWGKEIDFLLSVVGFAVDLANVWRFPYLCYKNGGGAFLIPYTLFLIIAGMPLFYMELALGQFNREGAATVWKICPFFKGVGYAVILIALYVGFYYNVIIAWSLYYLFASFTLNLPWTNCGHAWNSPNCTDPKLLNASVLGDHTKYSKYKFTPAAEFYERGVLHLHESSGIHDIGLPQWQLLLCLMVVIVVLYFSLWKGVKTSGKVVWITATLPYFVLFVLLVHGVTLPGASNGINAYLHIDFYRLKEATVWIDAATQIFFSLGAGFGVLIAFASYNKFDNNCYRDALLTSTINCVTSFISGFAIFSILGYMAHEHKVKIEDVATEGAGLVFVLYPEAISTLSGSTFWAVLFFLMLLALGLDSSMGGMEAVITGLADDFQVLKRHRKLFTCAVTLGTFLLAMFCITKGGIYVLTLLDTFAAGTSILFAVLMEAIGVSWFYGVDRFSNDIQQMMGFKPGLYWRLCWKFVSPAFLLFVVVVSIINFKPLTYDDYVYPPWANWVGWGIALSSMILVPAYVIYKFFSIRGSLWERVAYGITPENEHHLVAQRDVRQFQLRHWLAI

[9] = biological target: T4, NET (Rattus norvegicus, UniProt Q63380); experiment: NET uptake inhibition, [3H]NE; format: biochemical; details: in vitro data, Table 4
T4 construct: from tissue
T4 sequence (Q63380 1-617): as above

[10] = Table 2, average ± SEM, read-out: SERT binding, IC50 [3H]citalopram
[11] = Table 2, average ± SEM, read-out: NET binding, IC50 [3H]nisoxetine
[12] = Table 2, average ± SEM, read-out: DAT uptake, IC50 [3H]DA
[13] = Table 4, rat brain, read-out: DAT uptake, IC50 [3H]DA
[14] = Table 4, rat brain, read-out: SERT uptake, IC50 [3H]5-HT
[15] = Table 4, rat brain, read-out: DAT binding, IC50, [3H]Win 35,428

- IC50 ([2]; Table 1, read-out: Inhibition of [3H]citalopram binding to SERT, IC50): 8410 nM
- IC50 [2, 10]: 8410 nM
- SERT binding/DAT binding [2]: 26.9
- IC50 ([3]; Table 1, read-out: Inhibition of [3H]nisoxetine binding to NET, IC50): 12700 nM
- IC50 [3, 11]: 12700 nM
- NET binding/DAT binding [4]: 40.6
- activity at DAT, in words [5]: much weaker at DAT
- IC50 ([5]; Table 1, rat striatum, read-out: Inhibition of [3H]Win 35,428 binding to DAT IC50): 313 ± 71 nM
Structure (SMILES): Fc1ccc(CN[C@H]2CC[C@H](C(c3ccccc3)c3ccccc3)OC2)cc1 (relative stereo) [Compound 16a, trans-2-diphenylmethyl-5-(4-fluorobenzylamino)-tetrahydropyran]
- IC50 [1]: 313 nM

- IC50 [6, 12]: 146 ± 36 nM
- [3H]DA uptake/DAT binding [6]: 0.96
- IC50 [2, 10]: 1860 nM
- SERT binding/DAT binding [2]: 11.4
- IC50 [3, 11]: 232 ± 46 nM
- NET binding/DAT binding [4]: 1.4
Structure (SMILES): Fc1ccc(CN[C@H]2CC[C@@H](C(c3ccccc3)c3ccccc3)OC2)cc1 (relative stereo) [Compound 16b, Cis-(6-benzhydryl-tetrahydropyran-3-yl)-(4-fluoro-benzyl)-amine]
- IC50 [1]: 163 nM

Structure (SMILES): O=[N+]([O-])c1ccc(CN[C@H]2CC[C@@H](C(c3ccccc3)c3ccccc3)OC2)cc1 (relative stereo) [Compound 16d, Cis-(6-benzhydryl-tetrahydropyran-3-yl)-(4-nitro-benzyl)-amine]
- potency in inhibiting binding versus uptake, in words ([6]; DA uptake assay compared with DAT binding): three fold higher potency in inhibiting binding than uptake
- IC50 [6, 12]: 102 ± 7 nM
- [3H]DA uptake/DAT binding [6]: 2.7
- IC50 [1]: 38.3 nM
- activity at DAT, in words [5]: the most active for the DAT
- IC50 ([5]; read-out: IC50 at the DAT): 38.3 nM

Structure (SMILES): COc1ccc(CN[C@H]2C[C@H](C(c3ccccc3)c3ccccc3)OC[C@H]2O)cc1 [(+)-29g, (3S,4S,6R)-6-benzhydryl-4-(4-methoxy-benzylamino)-tetrahydropyran-3-ol]
- IC50 [6, 13]: 2670 ± 260 nM
- IC50 [7, 14]: 3810 ± 460 nM
- IC50 [8]: 1840 ± 580 nM
- IC50 [5, 15]: 3750 ± 620 nM

Structure (SMILES): O[C@@H]1CO[C@@H](C(c2ccccc2)c2ccccc2)C[C@@H]1NCc1ccccc1 [(+)-29h, (3S,4S,6R)-6-benzhydryl-4-benzylamino-tetrahydropyran-3-ol]
- IC50 [6, 13]: 962 ± 97 nM
- IC50 [7, 14]: 4420 ± 410 nM
- IC50 [8]: 3220 ± 570 nM
- IC50 [5, 15]: 1250 ± 100 nM

Structure (SMILES): O[C@@H]1C[C@@H](C(c2ccccc2)c2ccccc2)OC[C@H]1NCc1ccc(F)cc1 [(−)-29b, (2S,4R,5R)-2-benzhydryl-5-(4-fluoro-benzylamino)-tetrahydro-pyran-4-ol]
- IC50 [6]: 169 ± 20 nM
- IC50 [7]: 676 ± 33 nM
- IC50 [8]: 13.3 ± 1 nM
- selectivity for the NET (NRI profile), in words [9]: selective blockers for NET
- selectivity for the NET (NRI profile), in words ([9]; listed as (−)29b): more selective for the NET
- IC50 [5]: 308 ± 25 nM

Structure (SMILES): O[C@@H]1C[C@@H](C(c2ccccc2)c2ccccc2)OC[C@H]1NCCc1ccc(F)cc1 [(−)-29c, (2S,4R,5R)-2-benzhydryl-5-[2-(4-fluoro-phenyl)-ethylamino]-tetrahydropyran-4-ol]
- IC50 [6, 13]: 427 ± 67 nM
- IC50 [7, 14]: 3570 ± 140 nM
- IC50 [8]: 439 ± 14 nM
- IC50 [5, 15]: 1050 ± 40 nM

Structure (SMILES): COc1ccc(CN[C@@H]2CO[C@H](C(c3ccccc3)c3ccccc3)C[C@H]2O)c(OC)c1 [(−)-29e, (2S,4R,5R)-2-benzhydryl-5-(2,4-dimethoxy-benzylamino)-tetrahydropyran-4-ol]
- IC50 [6, 13]: 710 ± 130 nM
- IC50 [7, 14]: 24 ± 4 nM
- blockade of both SERT and NET (SNRI profile), in words ([7]; Table 4): dual transport blockers; also recorded: potent blockers for both SERT and NET
- IC50 [8]: 115 ± 14 nM
- IC50 [5, 15]: 1060 nM

Structure (SMILES): COc1cc(CN[C@@H]2CO[C@H](C(c3ccccc3)c3ccccc3)C[C@H]2O)cc(OC)c1 [(−)-29f, (2S,4R,5R)-2-benzhydryl-5-(3,5-dimethoxy-benzylamino)-tetrahydropyran-4-ol]
- IC50 [6, 13]: 135 ± 3 nM
- IC50 [7, 14]: 25.4 ± 2 nM
- blockade of both SERT and NET (SNRI profile), in words ([7]; Table 4): potent blockers for both SERT and NET
- blockade of both SERT and NET (SNRI profile), in words ([7]; Table 4, listed as (−)29f): dual transport blockers
- IC50 [8]: 108 ± 11 nM
- IC50 [5, 15]: 298 ± 29 nM

Structure (SMILES): COc1ccc(CN[C@@H]2C[C@@H](C(c3ccccc3)c3ccccc3)OC[C@@H]2O)cc1 [(−)-29g, (3R,4R,6S)-6-benzhydryl-4-(4-methoxy-benzylamino)-tetrahydro-pyran-3-ol]
- IC50 [6, 13]: 822 ± 120 nM
- IC50 [7, 14]: 1070 ± 100 nM
- IC50 [8]: 765 ± 34 nM
- IC50 [5, 15]: 771 ± 86 nM

Structure (SMILES): O[C@@H]1CO[C@H](C(c2ccccc2)c2ccccc2)C[C@H]1NCc1ccccc1 [(−)-29h, (3S,4R,6S)-6-benzhydryl-4-benzylamino-tetrahydropyran-3-ol]
- IC50 [6, 13]: 2610 ± 140 nM
- IC50 [7, 14]: 10000 nM
- IC50 [8]: 336 ± 33 nM
- IC50 [5, 15]: 4640 ± 1030 nM
